Test results taken from patent US20080233562A1, “Method of Estimating Antitumor Effect of Histone Deacetylase Inhibitor” (Astellas Pharma Inc., priority 2003, published 2008).

Key:
[1] = Maximum tolerated dose, intravenous administration to nude mice; settings: mouse, in vivo, i.v.
Method: The administration was started on the day of grouping (Day 0). FK228 was intravenously administered to an FK228 administration group 3 times every 4 days (q4d×3) (3.2 and 1.8 mg/kg). Paclitaxel (24 mg/kg) was intravenously administered for 5 consecutive days (qd×5) to a positive control substance Paclitaxel administration group. Only a solvent (10% HCO-60/saline) was administered (q4d×3) to a control group. The amount of liquid for each administration was calculated (0.1 mL/10 g body weight) based on the body weight measured on the administration day. Note that 3.2 mg/kg/day (q4d×3) of FK228 and 24 mg/kg/day (qd×5) of Paclitaxel were the maximum tolerated doses (MTD) thereof.

human kidney cancer ACHN = assay: Antitumor effect on human kidney cancer ACHN tumor fragment implanted s.c. in nude mice; type: in vivo
Method: A necessary amount of FK228 was weighed and a solvent (10% HCO-60/saline) was added. The mixture was sonicated to allow for dissolution.
(§3) For antitumor test of the pharmaceutical agent, BALB/cANnNCrj-nu/nu mice (male, 6-week-old) were purchased from Charles River Japan and, after acclimation for not less than one week, used for the test. The mice were reared under an SPF environment and allowed a free access to water and feed.
Cultured human kidney cancer cell line 1 (ACHN: available from ATCC) and human culture prostate cancer cell line 1 (PC-3: available from ATCC) were subcutaneously implanted at 2-3×10^7 cells in a nude mouse. A grown solid tumor was subcultured for not less than 3 generations and used for the test.
(§4) A solid tumor subcultured in a nude mouse was subcutaneously implanted in the right back of a mouse as an about 3 mm square tumor tissue fragment. […]
(§5) The administration was started on the day of grouping (Day 0). […] The amount of liquid for each administration was calculated (0.1 mL/10 g body weight) based on the body weight measured on the administration day.
(§6) The tumor size (longer diameter, shorter diameter) and body weight were measured twice a week from Day 0.
(§7) The level of tumor growth was evaluated based on the tumor growth rate (Relative Tumor Volume). […]

[2] = tested on: human prostate cancer PC-3; assay: Antitumor effect on human prostate cancer PC-3 tumor fragment implanted s.c. in nude mice; type: in vivo
Method: A necessary amount of FK228 was weighed and a solvent (10% HCO-60/saline) was added. The mixture was sonicated to allow for dissolution. A positive control substance Paclitaxel was dissolved in Cremophor EL/ethanol (1:1) solution to 24 mg/mL prior to the testing, and preserved in a refrigerator. When in use, it was diluted with a 9-fold amount of physiological saline to 2.4 mg/mL (solvent component: 5% Cremophor EL-5% ethanol-90% saline).
as §3
A grown solid tumor was subcultured for not less than 3 generations and used for the test.
as §4, §5, §6, §7

human kidney cancer A498 = assay: Antitumor effect on human kidney cancer A498 tumor fragment implanted s.c. in nude mice; type: in vivo; settings: 3.2 mg/kg i.v.
Excerpt: (§1) A solid tumor subcultured in a nude mouse was subcutaneously implanted in the right back of a mouse as an about 3 mm square tumor tissue fragment. After the tumor implantation, when the tumor volume (½×longer diameter×shorter diameter^2) reached 100-300 mm^3, the mice were grouped into 6 mice per group to level the tumor size.
human kidney cancer A498; obtained from ATCC (tumor fragment 3 mm×3 mm×3 mm/mouse implantation site s.c.)
(§2) By the method shown in Example 1, 3 mm square tumor fragments (human prostate cancer PC-3, human stomach cancer SC-6, human kidney cancer ACHN and human kidney cancer A498) were subcutaneously implanted in nude mice, and when the tumor volume (long diameter 9 mm, short diameter 8 mm) reached about 100-300 mm^3, FK228 (3.2 mg/kg) was intravenously administered. The tumor growth suppressing rates then were 98%, 84%, 20% and 29%, respectively.

[3] = tested on: human stomach cancer SC-6; assay: Antitumor effect on human stomach cancer SC-6 tumor fragment implanted s.c. in nude mice; type: in vivo; settings: SC-6 s.c. in nude mice, 3.2 mg/kg i.v.
Excerpt: as §1
human gastric cancer SC-6; obtained from Central Institute for Experimental Animals (tumor fragment 3 mm×3 mm×3 mm/mouse implantation site s.c.)
as §2

SMILES | MTD at 5 days ([1]; 24 mg/kg, qd×5, nude mice) [mg/kg/day] | antitumor action (tumor growth rate, Relative Tumor Volume) (human kidney cancer ACHN; ACHN in nude mice, FK228 i.v. q4d×3, FIG. 1(b)) | tumor growth suppressing rate (human kidney cancer ACHN; ACHN s.c. in nude mice, 3.2 mg/kg i.v.) [%] | MTD ([1]; q4d×3, nude mice) [mg/kg/day] | antitumor action (tumor growth rate, Relative Tumor Volume) ([2]; PC-3 in nude mice, FK228 3.2 mg/kg i.v. q4d×3, FIG. 1(a)) | tumor growth suppressing rate ([2]; PC-3 s.c. in nude mice, 3.2 mg/kg i.v.) [%] | tumor growth suppressing rate (human kidney cancer A498) [%] | tumor growth suppressing rate [3] [%]
CC(=O)O[C@H]1C(=O)[C@@]2(C)[C@H]([C@H](OC(=O)c3ccccc3)[C@]3(O)C[C@H](OC(=O)[C@H](O)[C@@H](NC(=O)c4ccccc4)c4ccccc4)C(C)=C1C3(C)C)[C@]1(OC(C)=O)CO[C@@H]1C[C@@H]2O [Paclitaxel, reference compound] | 24 | – | – | – | – | – | – | –
C/C=C1\NC(=O)[C@H]2CSSCC/C=C/[C@H](CC(=O)N[C@H](C(C)C)C(=O)N2)OC(=O)[C@H](C(C)C)NC1=O [FK228] | – | did not show an antitumor action | 20 | 3.2 | strong antitumor action | 98 | 29 | 84
